Measurements published in patent US12109266B2, “Modulating gabarap to modulate immunogenic cell death” (Dana-Farber Cancer Institute, Inc., priority 2020, dated 2024).
Entries after “also recorded” stand apart in the source; their conditions may differ.

Tested on: CALR
Assay: Mass spectrometry after CALR immunoprecipitation
Format: cell-based, human
Conditions: AMO1 WT vs GABARAP^KO, with or without BTZ
From the text: To test this hypothesis, the CALR network was explored at the protein level by performing mass spectrometry (MS) after CALR immunoprecipitation (IP) in WT or GABARAP^KO AMO1 cells in the presence or absence of BTZ. […] CALR trap in the mitochondria has been recently reported in tumors with high stanniocalcin 1 (STC1), a newly recognized phagocytosis checkpoint driving tumor immune resistance (Lin et al. (2021) Cancer Cell. April 12; 39(4):480-493.e6. doi: 10.1016/j.ccell.2020.12.023. Epub 2021 Jan. 28. PMID: 33513345; PMCID: PMC8044011). […] A WB analysis of FLAG-immunoprecipitated proteins in […] cells expressing FLAG-tagged GABARAP was performed to analyze GABARAP interacting partners. […] These findings identify a molecular mechanism whereby GABARAP prevents STC1 binding to CALR; conversely, in low-GABARAP cells STC1 binding to CALR induces trapping of CALR in the mitochondria (FIG. 34).

In the case of `CC(C)C[C@H](NC(=O)[C@H](Cc1ccccc1)NC(=O)c1cnccn1)B(O)O` [BTZ, bortezomib], the “binding of CALR to mitochondrial proteins” value is reported as “increases the binding of CALR to mitochondrial proteins in AMO1 GABARAP^KO cells and not WT cells; also recorded: increase of the binding of CALR to mitochondrial proteins only in AMO1 GABARAP^KO cells; also recorded: CALR localizes to the mitochondria after treatment with BTZ in GABARAP KO cells”.
